Patent US20220348592A1, “FUSED HETEROCYCLIC DERIVATIVES” (Janssen Sciences Ireland Unlimited Company, priority 2019, published 2022)
Like-named read-outs stand apart in the source and are kept apart here.

Key:
[1] = Cytotoxicity in HepG2.117 cells, ATPlite Luminescence Assay; format: cell-based, human; conditions: human, incubated for 3 days, mean value, read-out: TOX-HepG2.117 CC50 (μM, mean value)
Description: Cytotoxicity of the compounds was tested using HepG2 or HepG2.117 cells, incubated for 3 days in the presence of compounds. The viability of the cells was assessed using the PERKIN ELMER ATPlite Luminescence Assay System.”

[2] = test system: HBV; assay: Anti-HBV activity: intracellular HBV DNA by real-time PCR in HepG2.117 cell line; format: cell-based, Hepatitis B virus; conditions: Hepatitis B virus, read-out: HBV-AVE-HepG2.117 EC50 (μM, mean value)
Description: The anti HBV activity was measured using the HepG2.117 cell line, a stable, inducibly HBV producing cell line, which replicates HBV in the absence of doxicycline (Tet-off system). The HepG2 cell line is available from ATCC® under number HB-8065. Transfection of the HepG2 cell line can be as described in Sun and Nassal 2006 Journal of Hepatology 45 (2006) 636-645 “Stable HepG2- and Huh7-based human hepatoma cell lines for efficient regulated expression of infectious hepatitis B virus”.
For the antiviral assay, HBV replication was induced, followed by a treatment with serially diluted compound in 96-well plates. After 3 days of treatment, the antiviral activity was determined by quantification of intracellular HBV DNA using real-time PCR and an HBV specific primer set and probe.

[3] = 72 h, HepG2.117 cells, 3 days of treatment, intracellular HBV DNA by real-time PCR, mean value

Which CC50 at 3 days [1] does the source give for `C[C@@H]1Cc2nn3c(c2CN1C(=O)c1ccc(Cl)c(Cl)c1)C(=O)N(Cc1ccnn1C)CC3` [Compound 18, (3R)-2-(3,4-Dichlorobenzoyl)-3-methyl-9-[(1-methyl-1H-pyrazol-5-yl)methyl]-1,2,3,4,8,9-hexahydropyrido[4′,3′:3,4]pyrazolo[1,5-a]pyrazin-10(7H)-one] here?
Its CC50 at 3 days is over 50 µM.

And the EC50 [2, 3]?
Its EC50 is 0.252 µM.

Which CC50 at 3 days [1] does the source give for `C[C@@H]1Cc2nn3c(c2CN1C(=O)c1ccc(Cl)c(Cl)c1)C(=O)N(Cc1ccn(C)n1)CC3` [Compound 19, (3R)-2-(3,4-Dichlorobenzoyl)-3-methyl-9-[(1-methyl-1H-pyrazol-3-yl)methyl]-1,2,3,4,8,9-hexahydropyrido[4′,3′:3,4]pyrazolo[1,5-a]pyrazin-10(7H)-one] here?
Its CC50 at 3 days is over 50 µM.

And the EC50 [2, 3]?
The EC50 was 0.079 µM.

For `C[C@@H]1Cc2nn3c(c2CN1C(=O)c1ccc(Cl)c(Cl)c1)C(=O)N(Cc1cc[nH]n1)CC3` [Compound 20, (3R)-2-(3,4-Dichlorobenzoyl)-3-methyl-9-[(1H-pyrazol-3-yl)methyl]-1,2,3,4,8,9-hexahydro-pyrido[4′,3′:3,4]pyrazolo[1,5-a]pyrazin-10(7H)-one], which CC50 at 3 days [1] is on record?
Its CC50 at 3 days is over 50 µM.

What about the EC50 [2, 3] of the same compound?
The EC50 was 0.108 µM.

What does the source list for `C[C@@H]1Cc2nn3c(c2CN1C(=O)c1ccc(Cl)c(Cl)c1)C(=O)N(Cc1ccon1)CC3` [Compound 21, (3R)-2-(3,4-Dichlorobenzoyl)-3-methyl-9-[(1,2-oxazol-3-yl)methyl]-1,2,3,4,8,9-hexahydro-pyrido[4′,3′:3,4]pyrazolo[1,5-a]pyrazin-10(7H)-one]?
CC50 at 3 days [1]: > 50 µM; EC50 [2, 3]: 0.268 µM

For `C[C@@H]1Cc2nn3c(c2CN1C(=O)c1ccc(Cl)c(Cl)c1)C(=O)N(Cc1cscn1)CC3` [Compound 22, (3R)-2-(3,4-Dichlorobenzoyl)-3-methyl-9-[(1,3-thiazol-4-yl)methyl]-1,2,3,4,8,9-hexahydro-pyrido[4′,3′:3,4]pyrazolo[1,5-a]pyrazin-10(7H)-one], which CC50 at 3 days [1] is on record?
Its CC50 at 3 days is over 50 µM.

What about the EC50 [2, 3] of the same compound?
Its EC50 is 0.129 µM.

With `COc1ccc([C@@H](C)N2CCn3nc4c(c3C2=O)CN(C(=O)c2ccc(Cl)c(Cl)c2)[C@H](C)C4)cc1` [Compound 23, (3R)-2-(3,4-Dichlorobenzoyl)-9-[(1R)-1-(4-methoxyphenyl)ethyl]-3-methyl-1,2,3,4,8,9-hexahydropyrido[4′,3′:3,4]pyrazolo[1,5-a]pyrazin-10(7H)-one] as the compound, how does the CC50 at 3 days [1] read?
Its CC50 at 3 days is over 50 µM.

And the EC50 [2, 3]?
Its EC50 is 0.022 µM.

For `COc1ccc([C@H](C)N2CCn3nc4c(c3C2=O)CN(C(=O)c2ccc(Cl)c(Cl)c2)[C@H](C)C4)cc1` [Compound 24, (3R)-2-(3,4-dichlorobenzoyl)-9-[(1S)-1-(4-methoxyphenyl)ethyl]-3-methyl-1,2,3,4,8,9-hexahydropyrido[4′,3′:3,4]pyrazolo[1,5-a]pyrazin-10(7H)-one], which CC50 at 3 days [1] is on record?
Its CC50 at 3 days is 10.4 µM.

And the EC50 [2, 3]?
Its EC50 is 0.036 µM.

For `C[C@@H]1Cc2nn3c(c2CN1C(=O)c1ccc(Cl)c(Cl)c1)C(=O)N([C@H](C)c1ccc(F)cc1)CC3` [Compound 25, (3R)-2-(3,4-Dichlorobenzoyl)-9-[(1R)-1-(4-fluorophenyl)ethyl]-3-methyl-1,2,3,4,8,9-hexahydropyrido[4′,3′:3,4]pyrazolo[1,5-a]pyrazin-10(7H)-one], which CC50 at 3 days [1] is on record?
The CC50 at 3 days was over 25 µM.

What about the EC50 [2, 3] of the same compound?
The EC50 was 0.016 µM.

For `C[C@@H]1Cc2nn3c(c2CN1C(=O)c1ccc(Cl)c(Cl)c1)C(=O)N([C@@H](C)c1ccc(F)cc1)CC3` [Compound 26, (3R)-2-(3,4-Dichlorobenzoyl)-9-[(1S)-1-(4-fluorophenyl)ethyl]-3-methyl-1,2,3,4,8,9-hexahydro-pyrido[4′,3′:3,4]pyrazolo[1,5-a]pyrazin-10(7H)-one], which CC50 at 3 days [1] is on record?
The CC50 at 3 days was 26.2 µM.

What about the EC50 [2, 3] of the same compound?
The EC50 was 0.028 µM.

Which results are given for `C[C@@H]1Cc2nn3c(c2CN1C(=O)c1ccc(Cl)c(Cl)c1)C(=O)N([C@H](C)c1ccc(OC(F)F)cc1)CC3` [Compound 27, (3R)-2-(3,4-Dichlorobenzoyl)-9-{(1R)-1-[4-(difluoromethoxy)phenyl]ethyl}-3-methyl-1,2,3,4,8,9-hexahydropyrido[4′,3′:3,4]pyrazolo[1,5-a]pyrazin-10(7H)-one]?
CC50 at 3 days [1]: > 50 µM; EC50 [2, 3]: 0.103 µM

For `C[C@@H]1Cc2nn3c(c2CN1C(=O)c1ccc(Cl)c(Cl)c1)C(=O)N([C@@H](C)c1ccc(OC(F)F)cc1)CC3` [Compound 28, (3R)-2-(3,4-Dichlorobenzoyl)-9-{(1S)-1-[4-(difluoromethoxy)phenyl]ethyl}-3-methyl-1,2,3,4,8,9-hexahydropyrido[4′,3′:3,4]pyrazolo[1,5-a]pyrazin-10(7H)-one], which CC50 at 3 days [1] is on record?
Its CC50 at 3 days is 16.7 µM.

And the EC50 [2, 3]?
Its EC50 is 0.057 µM.

What does the source list for `C[C@@H]1Cc2nn3c(c2CN1C(=O)c1ccc(Cl)c(Cl)c1)C(=O)N([C@@H](C)c1ncn(S(=O)(=O)N(C)C)n1)CC3` [Compound 29, 3-{(1S)-1-[(3R)-2-(3,4-Dichlorobenzoyl)-3-methyl-10-oxo-1,3,4,7,8,10-hexahydropyrido-[4′,3′:3,4]pyrazolo[1,5-a]pyrazin-9(2H)-yl]ethyl}-N,N-dimethyl-1H-1,2,4-triazole-1-sulfonamide]?
CC50 at 3 days [1]: > 50 µM; EC50 [2, 3]: 0.741 µM

What does the source list for `C[C@@H]1Cc2nn3c(c2CN1C(=O)c1ccc(Cl)c(Cl)c1)C(=O)N([C@@H](C)c1nc[nH]n1)CC3` [Compound 30, (3R)-2-(3,4-Dichlorobenzoyl)-3-methyl-9-[(1S)-1-(1H-1,2,4-triazol-3-yl)ethyl]-1,2,3,4,8,9-hexa-hydropyrido[4′,3′:3,4]pyrazolo[1,5-a]pyrazin-10(7H)-one]?
CC50 at 3 days [1]: > 50 µM; EC50 ([2]; HepG2.117, 72 h): 1.5 µM

For `CN1CCCn2nc3c(c2C1=O)CN(C(=O)c1ccc(Cl)c(Cl)c1)CC3` [Compound 34, 2-(3,4-Dichlorobenzoyl)-10-methyl-1,2,3,4,7,8,9,10-octahydro-11H-pyrido[4′,3′:3,4]pyrazolo-[1,5-a][1,4]diazepin-11-one], which CC50 at 3 days [1] is on record?
Its CC50 at 3 days is over 50 µM.

What about the EC50 [2, 3] of the same compound?
The EC50 was 1.38 µM.

Which CC50 at 3 days [1] does the source give for `COc1ccc(CN2CCCn3nc4c(c3C2=O)CN(C(=O)c2ccc(Cl)c(Cl)c2)CC4)cc1` [Compound 36, 2-(3,4-Dichlorobenzoyl)-10-[(4-methoxyphenyl)methyl]-1,2,3,4,7,8,9,10-octahydro-11H-pyrido[4′,3′:3,4]pyrazolo[1,5-a][1,4]diazepin-11-one] here?
Its CC50 at 3 days is 24.6 µM.

What about the EC50 [2, 3] of the same compound?
The EC50 was 0.077 µM.

For `O=C(c1ccc(Cl)c(Cl)c1)N1CCc2nn3c(c2C1)C(=O)N(Cc1ccncc1)CCC3` [Compound 37, 2-(3,4-Dichlorobenzoyl)-10-[(pyridin-4-yl)methyl]-1,2,3,4,7,8,9,10-octahydro-11H-pyrido-[4′,3′:3,4]pyrazolo[1,5-a][1,4]diazepin-11-one], which CC50 at 3 days [1] is on record?
The CC50 at 3 days was over 50 µM.

What about the EC50 [2, 3] of the same compound?
The EC50 was 0.345 µM.

Which CC50 at 3 days [1] does the source give for `C[C@@H]1Cc2nn3c(c2CN1C(=O)c1ccc(Cl)c(Cl)c1)C(=O)NCCC3` [Compound 38, (3R)-2-(3,4-Dichlorobenzoyl)-3-methyl-1,2,3,4,7,8,9,10-octahydro-11H-pyrido[4′,3′:3,4]-pyrazolo[1,5-a][1,4]diazepin-11-one] here?
The CC50 at 3 days was over 50 µM.

What about the EC50 [2, 3] of the same compound?
The EC50 was 1.75 µM.

Which CC50 at 3 days [1] does the source give for `CC(C)CN1CCCn2nc3c(c2C1=O)CN(C(=O)c1ccc(Cl)c(Cl)c1)[C@H](C)C3` [Compound 39, (3R)-2-(3,4-Dichlorobenzoyl)-3-methyl-10-(2-methylpropyl)-1,2,3,4,7,8,9,10-octahydro-11H-pyrido[4′,3′:3,4]pyrazolo[1,5-a][1,4]diazepin-11-one] here?
The CC50 at 3 days was over 50 µM.

What about the EC50 ([2]; HepG2.117, 72 h) of the same compound?
The EC50 was 2.49 µM.
